The values below come from patent US20250314644A1, “METHODS COMPRISING DETECTION OF ADP-HEPTOSE” (CHILDREN'S HOSPITAL MEDICAL CENTER, priority 2023, published 2025).

For the test, the system named is Dnmt3a^−/− HSCs. The experiment in a line: NF-κB activation in vitro (NF-κB^GFP reporter, immunoblot). It counts as cell-based, mouse. Conditions: NF-κB^GFP HSCs compared to WT. An excerpt:
Because intestinal epithelial injury and dysbiosis mediate the expansion of Dnmt3a-mutant pre-leukemic cells was observed, Applicant evaluated whether this occurs because of ADP-heptose-mediated ALPK1 signaling. Indeed, Dnmt3a^−/− HSCs were exquisitely sensitive to ADP-heptose stimulation in vitro. […] Activation of NF-κB in Dnmt3a^−/− HSPCs occurred following treatment with ADP-heptose (FIG. 3L). […] Constitutive combined activation of NF-κB and MAPK, such as during chronic inflammation with IL-1β, promotes differentiation of HSCs at the expense of self-renewal, leading to depletion of the HSC population.
Dnmt3a^f/f and MxCre^+ (obtained from H. Lee Grimes Laboratory, CCHMC)^33, Alpk1^−/− (11 bp deletion in exon 3, C57BL/6N-Alpk1^em1Fsha/J, Cat no. 032561, Jackson Laboratory), Tifa^−/− (gift from Jun-Ichiro Inoue, University of Tokyo, Japan), and UBC-GFP (C57BL/6-Tg(UBC-GFP)30Scha/J, Cat no. 004353, Jackson Laboratory) mice were maintained on CD45.2+C57BL/6 background. NF-kB^GFP reporter mice were generously provided by C. Jobin. Throughout the study, CD45.1+B6.SJL-Ptprc^a (BoyJ) mice were used as recipients for BM transplantation experiments. […] Mice were bred, housed and monitored daily by laboratory staff and veterinary personnel for health and activity. […]
Protein concentration was evaluated by bicinchoninic acid (BCA) assay (Pierce, Cat #23225). […]
Background: Immunoblotting shows a protein as a band on a membrane.

Turning to `Nc1ncnc2c1ncn2[C@@H]1O[C@H](COP(=O)(O)OP(=O)(O)O[C@@H]2O[C@H]([C@H](O)CO)[C@@H](O)[C@H](O)[C@@H]2O)[C@@H](O)[C@H]1O` [ADP-heptose, ADP-D-glycero-β-D-manno-heptose], the “NF-κB activation (NF-κB^GFP reporter)” value is “robust and sustained NF-κB activation”.
